# Results: patent publication US20150258043A1, “USE OF SPHINGOID LONG CHAIN BASES AND THEIR ANALOGS IN TREATING AND PREVENTING BACTERIAL INFECTIONS” (YEDA RESEARCH AND DEVELOPMENT CO. LTD., priority 2012, published 2015)
# Entries after “also recorded” stand apart in the source; their conditions may differ.
# How the values were obtained:
# [1] = superscript reference marks; cited from earlier work
# P. aeruginosa = assay: Sytox green staining (membrane permeabilization of bacteria); type: cell-based, Pseudomonas aeruginosa; conditions: 50 μM in 1% DMSO, 30 min
# Method: FIGS. 4A-D. The ceramide/sphingosine ratio regulates P. aeruginosa growth. (A) Representative image of two independent experiments (left hand panel) after addition of Sytox green (1 μM) for 30 min in the absence or presence of 50 μM sphingosine or 50 μM C16-ceramide (C16-Cer) in 1% DMSO. Fluorescent and thus permeabilised bacteria were quantified (right hand panel). (B-D) The inhibitory effect of sphingosine on the growth of P. aeruginosa strain 762 is decreased in vitro and in vivo by C16-ceramide. (B) Bacteria were incubated with 10 μM sphingosine, and increasing concentrations of C16-ceramide, and growth was determined by counting colony forming unit (CFU) after 24 hrs growth on LB agar plates. Number of bacteria in the lung (C) and sickness score (D) of CF mice or WT mice inhaled with either sphingosine or a combination of sphingosine and C16-ceramide 1 h before (b.i.) with 10^8 P. aeruginosa CFU strain 762. Data are means±s.d., n=3 in (A,B) and n=4 in (C,D).
# Bacteria at early logarithmic phase were incubated in the presence or absence of sphingosine or C16-ceramide (C16-cer) (50 μM in 1% DMSO) for 30 minutes at 37° C. […] Sample were examined under fluorescence microscope, and bacteria were counted both in bright field and under green fluorescent filter in two independent experiments.
# [2] = test system: P. aeruginosa strains 762, PA14 and ATCC 27853; assay: Pulmonary P. aeruginosa infection of CF and CerS2 null mice, inhalation treatment (bacteria in lung, sickness score); type: in vivo, mouse; conditions: CF and CerS2 null mice; inhalation (125 μM) 1 h before or 1 h after intranasal infection with 1×10^8 CFU
# Method: (A,B) The number of bacteria in the lungs and the overall sickness score (C,D) of WT, CerS2 null and CF mice 3-4 h after intranasal infection with 1×10^8 CFU of P. aeruginosa strains 762 (A,C) and CF mice with strains PA14 and ATCC 27853. Mice were inhaled with 0.9% NaCl or acid ceramidase 1 h prior (b.i.) to infection, or with sphingosine or FTY720 1 h before (b.i.) or 1 h after (a.i.) infection. Sickness score 4, severely affected (unresponsive animal); score 3 affected, (heavy breathing, low body temperature, ruffled fur) score 2, moderately affected (ruffled fur, heavy breathing); score 1, slightly affected (ruffled fur); score 0, unaffected (healthy appearance). Data are means±s.d., n=4.
# Pulmonary infection of CF or CerS2 mice was achieved by intranasal application of P. aeruginosa strains 762, ATCC 27853 or PA14. Mice inhaled acid ceramidase, sphingosine, FTY720 or a combination of sphingosine and ceramide 1 hr before or after pulmonary infection. The number of bacteria in the lung was determined by culturing aliquots of lysed lungs on agar plates. Clinical symptoms of the infection were scored.
# Inhalation was performed with a PARI Boy SX nebulizer (PARI GmbH, Starnberg, Germany). This nebulizer generates a fine aerosol mist by pumping the fluid with an air jet. The mice inhaled the aerosol via a mask that is part of an oral inhalation device for children (LL-Nebulizer); the mask was clipped at the sides to cover only the mouse's nose and the surrounding part of the face. […]
# P. aeruginosa were grown for 14 to 14.5 h on fresh tryptic soy agar (TSA) plates (Becton Dickinson Biosciences, Germany). […] The bacterial OD was determined, and the bacteria were diluted in prewarmed H/S to a concentration of 1×10^8 CFU per 20 μL. […]
# Lungs were removed, homogenised and lysed for 10 min in 5 mg/ml saponin to release intracellular bacteria. […] Bacterial counts (CFU) were counted after 18 h.
smiles,measurement,setting,value
"CCCCCCCCCCCCC/C=C/[C@@H](O)[C@@H](N)CO (stereo in doubt) [D-erythro-Sphingosine, (2S,3R)-2-aminooctadec-4-ene-1,3-diol]",pK (in PBS),[1],"6.7^1,2"
same,Sytox green fluorescence of bacteria,P. aeruginosa,large increase in fluorescence
same,protection from pulmonary P. aeruginosa infection,[2],completely protected CF and CerS2 null mice from P. aeruginosa infection and even eliminated an existing infection; also recorded: rescue CF and CerS2 null mice from pulmonary P. aeruginosa infection; also recorded: prevents pulmonary P. aeruginosa infection
